Assay results taken from ChEMBL document CHEMBL4184302 (Bioorg Med Chem Lett, 2018).
Calls of active or inactive are those of the source. The calls are words filed in the database; no cut-off is given here.

Columns and labels:
[1] = Inhibition of bacterial N-terminal His6-tagged TEM1 expressed in Escherichia coli BL21 DE3 pLysS cells using FC-5 as substrate pretreated for 10 mins followed by substrate addition measured every 60 secs by fluorescence assay; parameters: species or system Bacteria
[2] = Inhibition of bacterial N-terminal His6-tagged NDM1 expressed in Escherichia coli BL21 DE3 pLysS cells using FC-5 as substrate pretreated for 10 mins followed by substrate addition measured every 60 secs by fluorescence assay; parameters: species or system Bacteria
[3] = Inhibition of bacterial N-terminal His6-tagged VIM2 (27 to 266 residues) expressed in Escherichia coli BL21 DE3 pLysS cells using FC-5 as substrate pretreated for 10 mins followed by substrate addition measured every 60 secs by fluorescence assay; parameters: species or system Bacteria
Bacteria [4] = test: Reversible inhibition of bacterial N-terminal His6-tagged VIM2 (27 to 266 residues) expressed in Escherichia coli BL21 DE3 pLysS cells at 11 uM using FC-5 as substrate pretreated for 30 mins followed by substrate addition by jump-dilution method
[5] = Inhibition of bacterial N-terminal His6-tagged VIM2 (27 to 266 residues) expressed in Escherichia coli BL21 DE3 pLysS cells using FC-5 as substrate pretreated for 10 mins followed by substrate addition by fluorescence assay; parameters: species or system Bacteria
Escherichia coli [6] = test: Potentiation of meropenem-induced antimicrobial activity against Escherichia coli BL21(DE3) harboring VIM-2 assessed as meropenem MIC at 50 uM measured after 16 to 20 hrs by microdilution broth method (reference value: 16 mg/L); format: functional
Escherichia coli [7] = test: Potentiation of meropenem-induced antimicrobial activity against Escherichia coli BL21(DE3) assessed as meropenem MIC at 25 uM measured after 16 to 20 hrs by microdilution broth method (reference value: <0.125 mg/L); format: functional
Bacteria [8] = test: Competitive inhibition of bacterial N-terminal His6-tagged VIM2 (27 to 266 residues) expressed in Escherichia coli BL21 DE3 pLysS cells using varying levels of FC-5 as substrate by fluorescence assay
Escherichia coli [9] = test: Potentiation of meropenem-induced antimicrobial activity against Escherichia coli BL21(DE3) harboring VIM-2 assessed as meropenem MIC at 25 uM measured after 16 to 20 hrs by microdilution broth method (reference value: 16 mg/L); format: functional
[10] = Binding affinity to bacterial N-terminal His6-tagged VIM2 (27 to 266 residues) expressed in Escherichia coli BL21 DE3 pLysS cells by isothermal calorimetric method; parameters: species or system Bacteria
Escherichia coli [11] = test: Potentiation of meropenem-induced antimicrobial activity against Escherichia coli BL21(DE3) assessed as meropenem MIC at 100 uM measured after 16 to 20 hrs by microdilution broth method (reference value: <0.125 mg/L); format: functional
Bacteria [12] = test: Reversible inhibition of bacterial N-terminal His6-tagged VIM2 (27 to 266 residues) expressed in Escherichia coli BL21 DE3 pLysS cells at 415 uM using FC-5 as substrate pretreated for 30 mins followed by substrate addition by jump-dilution method
Escherichia coli [13] = test: Potentiation of meropenem-induced antimicrobial activity against Escherichia coli BL21(DE3) assessed as meropenem MIC at 10 uM measured after 16 to 20 hrs by microdilution broth method (reference value: <0.125 mg/L); format: functional
Escherichia coli [14] = test: Potentiation of meropenem-induced antimicrobial activity against Escherichia coli BL21(DE3) assessed as meropenem MIC at 50 uM measured after 16 to 20 hrs by microdilution broth method (reference value: <0.125 mg/L); format: functional
Escherichia coli [15] = test: Potentiation of meropenem-induced antimicrobial activity against Escherichia coli BL21(DE3) harboring VIM-2 assessed as meropenem MIC at 100 uM measured after 16 to 20 hrs by microdilution broth method (reference value: 16 mg/L); format: functional
Escherichia coli [16] = test: Potentiation of meropenem-induced antimicrobial activity against Escherichia coli BL21(DE3) harboring VIM-2 assessed as meropenem MIC at 10 uM measured after 16 to 20 hrs by microdilution broth method (reference value: 16 mg/L); format: functional

Row | SMILES | IC50 [1] | pIC50 [1] | IC50 [2] | pIC50 [2] | IC50 [3] | pIC50 [3] | inhibition (Bacteria [4]) | IC50 [5] | MIC (Escherichia coli [6]) | MIC (Escherichia coli [7]) | inhibition (Bacteria [8]) | MIC (Escherichia coli [9]) | Kd [10] | MIC (Escherichia coli [11]) | inhibition (Bacteria [12]) | MIC (Escherichia coli [13]) | MIC (Escherichia coli [14]) | MIC (Escherichia coli [15]) | MIC (Escherichia coli [16])
1 | O=C(O)[C@H](O)Cc1ccc(O)c(O)c1 | 189 µM | 3.72 | > 600 µM | < 3.2 | > 600 µM | < 3.2 | – | – | – | – | – | – | – | – | – | – | – | – | –
2 | O=C(O)/C=C/c1ccc(O)c(O)c1 [CAFFEIC ACID] | > 600 µM | < 3.2 | > 600 µM | < 3.2 | > 600 µM | < 3.2 | – | – | – | – | – | – | – | – | – | – | – | – | –
3 | C[C@H](CS)C(=O)N1CCC[C@H]1C(=O)O [CAPTOPRIL] | – | – | – | – | – | – | Active | 2.47 µM | – | – | – | – | – | – | – | – | – | – | –
4 | O=C(/C=C/c1ccc(O)c(O)c1)O[C@H](Cc1ccc(O)c(O)c1)C(=O)O [ROSMARINIC ACID] | > 600 µM | < 3.2 | > 600 µM | < 3.2 | 41.5 µM | 4.38 | – | – | 8 µg/mL | < 0.125 µg/mL | Dose-dependent effect | 16 µg/mL | 10.2 µM | < 0.125 µg/mL | Active | < 0.125 µg/mL | < 0.125 µg/mL | 8 µg/mL | 16 µg/mL
5 | O=C(/C=C/c1ccc(O)c(O)c1/C=C/c1ccc(O)c(O)c1)O[C@H](Cc1ccc(O)c(O)c1)C(=O)O [SALVIANOLIC ACID A] | 34.3 µM | 4.46 | 160 µM | 3.75 to 3.79 | 27.2 µM | 4.57 | – | – | 4 µg/mL | < 0.125 µg/mL | – | 16 µg/mL | – | < 0.125 µg/mL | – | < 0.125 µg/mL | < 0.125 µg/mL | 4 µg/mL | 16 µg/mL
